What is called inhibition is the drop in the measured response relative to a control, in per cent.

Among the data in patent publication US8030499B2, “1,3-dihydro-2H-indole-2-one compound and pyrrolidine-2-one compound fused with aromatic heterocycle” (Taisho Pharmaceutical Co., Ltd., priority 2005, dated 2011) are inhibition values, retold here.

For the experiment, the target named is T1, human V1b receptor (Homo sapiens, UniProt P47901).
T1 construct: expressed in transfected cells; host or cells: CHO cells
T1 sequence (P47901 1-424): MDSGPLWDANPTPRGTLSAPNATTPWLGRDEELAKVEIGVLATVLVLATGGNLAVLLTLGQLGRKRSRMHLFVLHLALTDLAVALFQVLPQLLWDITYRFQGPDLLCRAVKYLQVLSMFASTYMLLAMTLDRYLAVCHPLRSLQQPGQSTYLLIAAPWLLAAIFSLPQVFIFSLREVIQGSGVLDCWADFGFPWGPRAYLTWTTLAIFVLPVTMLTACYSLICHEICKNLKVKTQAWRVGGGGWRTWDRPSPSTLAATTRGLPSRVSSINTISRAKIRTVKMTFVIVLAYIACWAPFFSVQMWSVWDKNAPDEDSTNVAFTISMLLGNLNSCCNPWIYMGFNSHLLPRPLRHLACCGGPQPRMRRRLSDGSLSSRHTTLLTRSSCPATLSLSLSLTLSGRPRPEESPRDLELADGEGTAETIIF
Briefly: V1b receptor binding assay ([3H](Arg8)-vasopressin, crude membranes of CHO cells). Particulars: 0.1 μmol/L test drug, V1b receptor binding assay; read-out: Rate of inhibition (V1b: % of inhibition). As to the method: A summary of the methods is given below.
Each obtained homogenate was centrifuged for 20 minutes at 50,000×g and 4° C., the sediment was resuspended in a 50 mmol/L Tris hydrochloric acid buffer solution (pH7.4, containing 10 mmol/L magnesium chloride and 0.1% bovine serum albumin), which served as a crude membrane preparation. This crude membrane preparation was added with [^3H] (Arg^8) vasopressin (final concentration: 0.1 nmol/L to 0.4 nmol/L), and each test drug (final concentration: 0.1 nmol/L to lμmol/L or 0.01 nmol/L to 0.1 μmol/L) to 22° C. for 90 minutes. After the end of the reaction, the reaction solution was filtrated using a GF/C glass fiber filter, which had been presoaked in 0.3% polyethyleneimine for two hours. After the GF/C glass fiber filter was dried sufficiently, scintillator was added, and the radioactivity on the filter was measured using a liquid scintillation counter. Binding of [^3H] (Arg^8)-vasopressin in the presence of (Arg^8)-vasopressin, in the amounts of 0.1 μmol/L in the V1b receptor binding assay and 5 μmol/L in the V1a and V2 receptor binding assay, were taken as non-specific binding, and the value obtained by subtracting non-specific binding from the total binding in the absence (Arg^8)-vasopressin served as specific binding.
In addition, regarding the V1b receptor binding assay, the value obtained by, subtracting the amount of binding in the presence of 0.1 μmol/L test drug from the total amount of binding, divided by the amount of specific binding, served as the rate of inhibition (% of inhibition) of the test drug at the concentration tested.
On to `COc1ccc(S(=O)(=O)N2C(=O)C(c3cc(CC#N)ccc3OC)(N3C[C@H](O)C[C@H]3C(=O)N(C)C)c3cc(Cl)ccc32)c(OC(F)(F)F)c1` (single isomer, unassigned) [Example 236], for which the inhibition at 0.1 µM turned out to be 93%. Next, `COc1ccc(S(=O)(=O)N2C(=O)C(NCC(=O)N3CCN(c4ccncc4)CC3)(c3ccccc3OC)c3cc(Cl)ccc32)c(OC(F)(F)F)c1` (stereo not drawn) [Example 58, 5-chloro-3-(2-methoxyphenyl)-1-{[4-methoxy-2-(trifluoromethoxy)phenyl]sulfonyl}-3-{[2-oxo-2-(4-pyridin-4-ylpiperazin-1-yl)ethyl]amino}-1,3-dihydro-2H-indol-2-one]: 77%. Next, `COc1ccc(S(=O)(=O)N2C(=O)C(c3cc(CO)ccc3OC)(N3C[C@H](O)C[C@H]3C(=O)N(C)C)c3cc(Cl)ccc32)c(OC(F)(F)F)c1` (single isomer, unassigned) [Example 203]: 87%; `CCN(C)CCCO[C@@H]1C[C@@H](C(=O)N(C)C)N(C2(c3cc(C)ccc3OC)C(=O)N(S(=O)(=O)c3ccc(OC)cc3OC(F)(F)F)c3ccc(Cl)cc32)C1` (stereo partly drawn) [Example 152, (4R)-1-(5-chloro-3-(2-methoxy-5-methylphenyl)-1-{[4-methoxy-2-(trifluoromethoxy)phenyl]sulfonyl}-2-oxo-2,3-dihydro-1H-indol-3-yl)-4-{3-[ethyl(methyl)amino]propoxy}-N,N-dimethyl-L-prolinamide]: 107%. Next, `COc1ccc(S(=O)(=O)N2C(=O)C(c3cc(C)ccc3OC)(N3C[C@H](O)C[C@H]3C(=O)N(C)C)c3cc(Cl)cnc32)c(OC(F)(F)F)c1` (single isomer, unassigned) [Example 118]: 67%; `COc1ccc(S(=O)(=O)N2C(=O)C(c3ccccc3OC)(N3c4ccccc4C[C@H]3C(=O)N(C)C)c3cc(Cl)ccc32)c(OC(F)(F)F)c1` (stereo partly drawn) [Example 40, (2S)-5′-chloro-3′-(2-methoxyphenyl)-1′-{[4-methoxy-2-(trifluoromethoxy)phenyl]sulfonyl}-N,N-dimethyl-2′-oxo-2,2′,3,3′-tetrahydro-1′H-1,3′-biindole-2-carboxamide]: 66%; `COc1ccc(S(=O)(=O)N2C(=O)C(c3cccc4c3OCO4)(N3C[C@H](O)C[C@H]3C(=O)N(C)C)c3cc(Br)ccc32)c(OC(F)(F)F)c1` (single isomer, unassigned) [Example 92]: 102%. On to `COc1ccc(S(=O)(=O)N2C(=O)C(c3cc(C)ccc3OC)(N3C[C@H](O)C[C@H]3C(=O)N(CCO)CCO)c3cc(Cl)ccc32)c(OC(F)(F)F)c1` (stereo partly drawn) [Example 161, (4R)-1-(5-chloro-3-(2-methoxy-5-methylphenyl)-1-{[4-methoxy-2-(trifluoromethoxy)phenyl]sulfonyl}-2-oxo-2,3-dihydro-1H-indol-3-yl)-4-hydroxy-N,N-bis(2-hydroxyethyl)-L-prolinamide], for which the inhibition at 0.1 µM amounted to 78%.

`COc1ccc(S(=O)(=O)N2C(=O)C(c3cc(C)ccc3OC)(N3C[C@H](OC(C)=O)C[C@H]3C(=O)N(C)C)c3cc(Cl)ccc32)c(OC(F)(F)F)c1` (single isomer, unassigned) [Example 137]: the inhibition at 0.1 µM is 96%. Next, `COc1ccc(S(=O)(=O)N2C(=O)C(c3cc(CN4CCN(C(=O)OC(C)(C)C)CC4)ccc3OC)(N3C[C@H](O)C[C@H]3C(=O)N(C)C)c3cc(Cl)ccc32)c(OC(F)(F)F)c1` (single isomer, unassigned) [Example 201]: 53%. The figure for `COc1ccc(S(=O)(=O)N2C(=O)C(c3cc(C)ccc3OC)(N3C[C@H](OCCCO)C[C@H]3C(=O)N(C)C)c3cc(Cl)ccc32)c(OC(F)(F)F)c1` (stereo partly drawn) [Example 139, (4R)-1-(5-chloro-3-(2-methoxy-5-methylphenyl)-1-{[4-methoxy-2-(trifluoromethoxy)phenyl]sulfonyl}-2-oxo-2,3-dihydro-1H-indol-3-yl)-4-(3-hydroxypropoxy)-N,N-dimethyl-L-prolinamide] is 103%. The figure for `COc1ccc(S(=O)(=O)N2C(=O)C(c3cc(C)ccc3OC)(N3C[C@H](OCCC(N)=O)C[C@H]3C(=O)N(C)C)c3cc(Cl)ccc32)c(OC(F)(F)F)c1` (stereo partly drawn) [Example 144, (4R)-4-(3-amino-3-oxopropoxy)-1-(5-chloro-3-(2-methoxy-5-methylphenyl)-1-{[4-methoxy-2-(trifluoromethoxy)phenyl]sulfonyl}-2-oxo-2,3-dihydro-1H-indol-3-yl)-N,N-dimethyl-L-prolinamide] is 95%; for `COC(=O)[C@@H]1C[C@@H](O)CN1C1(c2ccccc2OC)C(=O)N(S(=O)(=O)c2ccc(OC)cc2OC(F)(F)F)c2ccc(Cl)cc21` (single isomer, unassigned) [Example 4] it is 102%. `CNCc1ccc(OC)c(C2(N3C[C@H](O)C[C@H]3C(=O)N(C)C)C(=O)N(S(=O)(=O)c3ccc(OC)cc3OC(F)(F)F)c3ccc(Cl)cc32)c1` (stereo partly drawn) [Example 206, (4R)-1-(5-chloro-3-{2-methoxy-5-[(methylamino)methyl]phenyl}-1-{[4-methoxy-2-(trifluoromethoxy)phenyl]sulfonyl}-2-oxo-2,3-dihydro-1H-indol-3-yl)-4-hydroxy-N,N-dimethyl-L-prolinamide]: the inhibition at 0.1 µM was determined as 105%. The figure for `COc1ccc(S(=O)(=O)N2C(=O)C(c3cc(C)ccc3OC)(N3C[C@H](O)C[C@H]3C(=O)N(C)C)c3cc(Cl)ccc32)c(OCC(F)(F)F)c1` (single isomer, unassigned) [Example 171] is 95%. Next, `COc1ccc(S(=O)(=O)N2C(=O)C(c3cc(C)ccc3OC)(N3C[C@H](OCC(O)CO)C[C@H]3C(=O)N(C)C)c3cc(Cl)ccc32)c(OC(F)(F)F)c1` (stereo partly drawn) [Example 150, (4R)-1-(5-chloro-3-(2-methoxy-5-methylphenyl)-1-{[4-methoxy-2-(trifluoromethoxy)phenyl]sulfonyl}-2-oxo-2,3-dihydro-1H-indol-3-yl)-4-(2,3-dihydroxypropoxy)-N,N-dimethyl-L-prolinamide]: 89%; `COc1ccc(S(=O)(=O)N2C(=O)C(c3ccccc3OC)(N3C[C@H](F)C[C@H]3C(=O)N(C)C)c3cc(Cl)ccc32)c(OC(F)(F)F)c1` (single isomer, unassigned) [Example 7]: 96%; `COc1ccc(S(=O)(=O)N2C(=O)C(c3cc(C)ccc3OC)(N3C[C@H](O)C[C@H]3C(=O)N(C)C)c3cc(Br)cnc32)c(OC)c1` (single isomer, unassigned) [Example 121]: 47%. Turning to `COc1ccc(C2(N3CCCC[C@H]3C(=O)N(C)C)C(=O)N(S(=O)(=O)c3ccc(OC)cc3OC(F)(F)F)c3ccc(C)cc32)cc1` (single isomer, unassigned) [Example 96], the inhibition at 0.1 µM was 73%. As for `C=Cc1ccccc1C1(N2C[C@H](O)C[C@H]2C(=O)N(C)C)C(=O)N(S(=O)(=O)c2ccc(OC)cc2OC(F)(F)F)c2ccc(Cl)cc21` (single isomer, unassigned) [Example 104], the inhibition at 0.1 µM was determined as 94%. For the molecule `COc1ccc(S(=O)(=O)N2C(=O)C(c3cc(CCN(C)C)ccc3OC)(N3C[C@H](O)C[C@H]3C(=O)N(C)C)c3cc(Cl)ccc32)c(OC(F)(F)F)c1` (stereo partly drawn) [Example 221, (4R)-1-(5-chloro-3-{5-[2-(dimethylamino)ethyl]-2-methoxyphenyl}-1-{[4-methoxy-2-(trifluoromethoxy)phenyl]sulfonyl}-2-oxo-2,3-dihydro-1H-indol-3-yl)-4-hydroxy-N,N-dimethyl-L-prolinamide], the inhibition at 0.1 µM amounted to 102%. The figure for `COc1ccc(S(=O)(=O)N2C(=O)C(c3cc(CN4CCCC4)ccc3OC)(N3C[C@H](O)C[C@H]3C(=O)N(C)C)c3cc(Cl)ccc32)c(OC(F)(F)F)c1` (single isomer, unassigned) [Example 199] is 98%; for `COc1ccc(S(=O)(=O)N2C(=O)C(c3cc(C)cnc3OC)(N3C[C@H](O)C[C@H]3C(=O)N(C)C)c3cc(Cl)ccc32)c(OC)c1OC` (stereo partly drawn) [Example 173, (4R)-1-{5-chloro-3-(2-methoxy-5-methylpyridin-3-yl)-2-oxo-1-[(2,3,4-trimethoxyphenyl)sulfonyl]-2,3-dihydro-1H-indol-3-yl}-4-hydroxy-N,N-dimethyl-L-prolinamide] it is 104%.

Regarding `COc1ccc(S(=O)(=O)N2C(=O)C(c3cc(C)ccc3OC)(N3C[C@H](OCC#N)C[C@H]3C(=O)N(C)C)c3cc(Cl)ccc32)c(OC(F)(F)F)c1` (single isomer, unassigned) [Example 146], the inhibition at 0.1 µM was 94%.
